Data reported in patent publication US8546386B2, “Corrosion and microbial control in hydrocarbonaceous compositions” (Dow Global Technologies LLC, priority 2008, dated 2013).

What was measured:
Assay type in all cases: cell-based
[1] = test system: Pseudomonas aeruginosa ATCC#33988; assay: Microbial testing in diesel fuel, plate count
[2] = test system: Yarrowia tropicalis ATCC#48138; assay: Microbial testing in diesel fuel, plate count
[3] = test system: Hormoconis resinae ATCC#20495; assay: Microbial testing in diesel fuel, plate count
[4] = test system: Pseudomonas aeruginosa ATCC#33988; assay: Microbial testing in biodiesel fuel, plate count; details: for Ps. aeruginosa organism count: Biocide 0 ppm; for Bacteria (Ps. aeruginosa) count: no biocide
[5] = test system: Yarrowia tropicalis ATCC#48138; assay: Microbial testing in biodiesel fuel, plate count; details: Biocide 0 ppm
[6] = test system: Hormoconis resinae ATCC#20495; assay: Microbial testing in biodiesel fuel, plate count; details: for H. resinae organism count: Biocide 0 ppm; for Mold (H. resinae) count: no biocide
[7] = test system: mixed inoculum (Ps. aeruginosa, Y. tropicalis, H. resinae); assay: Microbial resistance of biodiesel fuel, overall statements; details: absence of biocide
[8] = amino alcohol 1500 ppm + FS 135 ppm, Day 0
[9] = amino alcohol 1500 ppm + FS 135 ppm, Wk 1
[10] = amino alcohol 1500 ppm + FS 135 ppm, Wk 2
[11] = amino alcohol 1500 ppm + FS 135 ppm, Wk 3
[12] = amino alcohol 1500 ppm + FS 135 ppm, Wk 4
[13] = amino alcohol 1500 ppm + FS 1000 ppm, Day 0
[14] = amino alcohol 1500 ppm + FS 1000 ppm, Wk 1
[15] = amino alcohol 1500 ppm + FS 1000 ppm, Wk 2
[16] = amino alcohol 1500 ppm + FS 1000 ppm, Wk 3
[17] = amino alcohol 1500 ppm + FS 1000 ppm, Wk 4
[18] = amino alcohol 1500 ppm, no biocide, Day 0
[19] = amino alcohol 1500 ppm, no biocide, Wk 1
[20] = amino alcohol 1500 ppm, no biocide, Wk 2
[21] = amino alcohol 1500 ppm, no biocide, Wk 3
[22] = amino alcohol 1500 ppm, no biocide, Wk 4
[23] = amino alcohol 3000 ppm + FS 135 ppm, Day 0
[24] = amino alcohol 3000 ppm + FS 135 ppm, Wk 1
[25] = amino alcohol 3000 ppm + FS 135 ppm, Wk 2
[26] = amino alcohol 3000 ppm + FS 135 ppm, Wk 3
[27] = amino alcohol 3000 ppm + FS 135 ppm, Wk 4
[28] = amino alcohol 3000 ppm + FS 1000 ppm, Day 0
[29] = amino alcohol 3000 ppm + FS 1000 ppm, Wk 1
[30] = amino alcohol 3000 ppm + FS 1000 ppm, Wk 2
[31] = amino alcohol 3000 ppm + FS 1000 ppm, Wk 3
[32] = amino alcohol 3000 ppm + FS 1000 ppm, Wk 4
[33] = amino alcohol 3000 ppm, no biocide, Day 0
[34] = amino alcohol 3000 ppm, no biocide, Wk 1
[35] = amino alcohol 3000 ppm, no biocide, Wk 2
[36] = amino alcohol 3000 ppm, no biocide, Wk 3
[37] = amino alcohol 3000 ppm, no biocide, Wk 4

## NC1(CO)CCCCC1 [ACyHM, 1-aminocyclohexylmethanol]
[1]; [8]
  Ps. aeruginosa organism count: 3.7E6
[1]; [9]
  Ps. aeruginosa organism count: 9.0E5
[1]; [10]
  Ps. aeruginosa organism count: 4.3E4
[1]; [11]
  Ps. aeruginosa organism count: 1.1E2
[1]; [12]
  Ps. aeruginosa organism count: 2.3E2
[1]; [13]
  Ps. aeruginosa organism count: 3.7E6
[1]; [14]
  Ps. aeruginosa organism count: 7.8E3
[1]; [15]
  Ps. aeruginosa organism count: <10
[1]; [16]
  Ps. aeruginosa organism count: <10
[1]; [17]
  Ps. aeruginosa organism count: <10
[1]; [18]
  Ps. aeruginosa organism count: 3.7E6
[1]; [19]
  Ps. aeruginosa organism count: 5.8E6
[1]; [20]
  Ps. aeruginosa organism count: 6.3E5
[1]; [21]
  Ps. aeruginosa organism count: 4.4E5
[1]; [22]
  Ps. aeruginosa organism count: 8.7E5
[1]; [23]
  Ps. aeruginosa organism count: 3.7E6
[1]; [24]
  Ps. aeruginosa organism count: 8.6E2
[1]; [25]
  Ps. aeruginosa organism count: 7.0E1
[1]; [26]
  Ps. aeruginosa organism count: <10
[1]; [27]
  Ps. aeruginosa organism count: 9.0E1
[1]; [28]
  Ps. aeruginosa organism count: 3.7E6
[1]; [29]
  Ps. aeruginosa organism count: <10
[1]; [30]
  Ps. aeruginosa organism count: <10
[1]; [31]
  Ps. aeruginosa organism count: <10
[1]; [32]
  Ps. aeruginosa organism count: <10
[1]; [33]
  Ps. aeruginosa organism count: 3.7E6
[1]; [34]
  Ps. aeruginosa organism count: 2.0E6
[1]; [35]
  Ps. aeruginosa organism count: 1.4E5
[1]; [36]
  Ps. aeruginosa organism count: 7.7E4
[1]; [37]
  Ps. aeruginosa organism count: 9.0E4
[2]; [8]
  Y. tropicalis organism count: 2.8E5
[2]; [9]
  Y. tropicalis organism count: 7.8E4
[2]; [10]
  Y. tropicalis organism count: 5.0E3
[2]; [11]
  Y. tropicalis organism count: 6.7E2
[2]; [12]
  Y. tropicalis organism count: 1.8E2
[2]; [13]
  Y. tropicalis organism count: 2.8E5
[2]; [14]
  Y. tropicalis organism count: 1.6E4
[2]; [15]
  Y. tropicalis organism count: <10
[2]; [16]
  Y. tropicalis organism count: <10
[2]; [17]
  Y. tropicalis organism count: <10
[2]; [18]
  Y. tropicalis organism count: 2.8E5
[2]; [19]
  Y. tropicalis organism count: 4.5E5
[2]; [20]
  Y. tropicalis organism count: 1.3E5
[2]; [21]
  Y. tropicalis organism count: 7.6E4
[2]; [22]
  Y. tropicalis organism count: 5.3E4
[2]; [23]
  Y. tropicalis organism count: 2.8E5
[2]; [24]
  Y. tropicalis organism count: 1.3E2
[2]; [25]
  Y. tropicalis organism count: <10
[2]; [26]
  Y. tropicalis organism count: <10
[2]; [27]
  Y. tropicalis organism count: <10
[2]; [28]
  Y. tropicalis organism count: 2.8E5
[2]; [29]
  Y. tropicalis organism count: <10
[2]; [30]
  Y. tropicalis organism count: <10
[2]; [31]
  Y. tropicalis organism count: <10
[2]; [32]
  Y. tropicalis organism count: <10
[2]; [33]
  Y. tropicalis organism count: 2.8E5
[2]; [34]
  Y. tropicalis organism count: 9.3E4
[2]; [35]
  Y. tropicalis organism count: 4.0E4
[2]; [36]
  Y. tropicalis organism count: 1.6E4
[2]; [37]
  Y. tropicalis organism count: 2.7E4
[3]; [8]
  H. resinae organism count: 5.3E5
[3]; [9]
  H. resinae organism count: 2.5E5
[3]; [10]
  H. resinae organism count: 2.0E3
[3]; [11]
  H. resinae organism count: 4.3E2
[3]; [12]
  H. resinae organism count: 7.0E2
[3]; [13]
  H. resinae organism count: 5.3E5
[3]; [14]
  H. resinae organism count: 1.1E4
[3]; [15]
  H. resinae organism count: <10
[3]; [16]
  H. resinae organism count: <10
[3]; [17]
  H. resinae organism count: 8.0E1
[3]; [18]
  H. resinae organism count: 5.3E5
[3]; [19]
  H. resinae organism count: 5.0E5
[3]; [20]
  H. resinae organism count: 1.3E5
[3]; [21]
  H. resinae organism count: 1.2E5
[3]; [22]
  H. resinae organism count: 2.7E5
[3]; [23]
  H. resinae organism count: 5.3E5
[3]; [24]
  H. resinae organism count: 2.0E3
[3]; [25]
  H. resinae organism count: 2.7E2
[3]; [26]
  H. resinae organism count: <10
[3]; [27]
  H. resinae organism count: 1.6E2
[3]; [28]
  H. resinae organism count: 5.3E5
[3]; [29]
  H. resinae organism count: 4.3E2
[3]; [30]
  H. resinae organism count: <10
[3]; [31]
  H. resinae organism count: 5.0E1
[3]; [32]
  H. resinae organism count: <10
[3]; [33]
  H. resinae organism count: 5.3E5
[3]; [34]
  H. resinae organism count: 9.4E4
[3]; [35]
  H. resinae organism count: 4.6E4
[3]; [36]
  H. resinae organism count: 6.6E4
[3]; [37]
  H. resinae organism count: 4.8E4
[4]; aminoalcohol 1500 ppm, Week 1
  Ps. aeruginosa organism count: <1.0E2
[4]; aminoalcohol 1500 ppm, Week 2
  Ps. aeruginosa organism count: <1.0E2
[4]; aminoalcohol 1500 ppm, Week 3
  Ps. aeruginosa organism count: <1.0E2
[4]; aminoalcohol 1500 ppm, Week 4
  Ps. aeruginosa organism count: <1.0E2
[4]; aminoalcohol 3000 ppm, Week 1
  Ps. aeruginosa organism count: <1.0E2
[4]; aminoalcohol 3000 ppm, Week 2
  Ps. aeruginosa organism count: <1.0E2
[4]; aminoalcohol 3000 ppm, Week 3
  Ps. aeruginosa organism count: <1.0E2
[4]; aminoalcohol 3000 ppm, Week 4
  Ps. aeruginosa organism count: <1.0E2
[5]; aminoalcohol 1500 ppm, Week 1
  Y. tropicalis organism count: <1.0E2
[5]; aminoalcohol 1500 ppm, Week 2
  Y. tropicalis organism count: <1.0E2
[5]; aminoalcohol 1500 ppm, Week 3
  Y. tropicalis organism count: <1.0E2
[5]; aminoalcohol 1500 ppm, Week 4
  Y. tropicalis organism count: <1.0E2
[5]; aminoalcohol 3000 ppm, Week 1
  Y. tropicalis organism count: <1.0E2
[5]; aminoalcohol 3000 ppm, Week 2
  Y. tropicalis organism count: <1.0E2
[5]; aminoalcohol 3000 ppm, Week 3
  Y. tropicalis organism count: <1.0E2
[5]; aminoalcohol 3000 ppm, Week 4
  Y. tropicalis organism count: <1.0E2
[6]; aminoalcohol 1500 ppm, Week 1
  H. resinae organism count: <1.0E2
[6]; aminoalcohol 1500 ppm, Week 2
  H. resinae organism count: <1.0E2
[6]; aminoalcohol 1500 ppm, Week 3
  H. resinae organism count: <1.0E2
[6]; aminoalcohol 1500 ppm, Week 4
  H. resinae organism count: <1.0E2
[6]; aminoalcohol 3000 ppm, Week 1
  H. resinae organism count: <1.0E2
[6]; aminoalcohol 3000 ppm, Week 2
  H. resinae organism count: <1.0E2
[6]; aminoalcohol 3000 ppm, Week 3
  H. resinae organism count: <1.0E2
[6]; aminoalcohol 3000 ppm, Week 4
  H. resinae organism count: <1.0E2

## CCCCCCCC/C=C\CCCCCCCC(=O)[O-].[K+] [KOH/Oleic, potassium oleate]
[7]
  effect on microbial resistance of biodiesel: no effect

## CCCCCCCC/C=C\CCCCCCCC(=O)O [Oleic Acid, oleic acid]
[4]; additive 500 ppm, Week 1
  Bacteria (Ps. aeruginosa) count: 7.80E+05 Bact/ml
[4]; additive 500 ppm, Week 2
  Bacteria (Ps. aeruginosa) count: 8.80E+05 Bact/ml
[4]; additive 500 ppm, Week 3
  Bacteria (Ps. aeruginosa) count: 7.40E+05 Bact/ml
[4]; additive 500 ppm, Week 4
  Bacteria (Ps. aeruginosa) count: 8.00E+05 Bact/ml
[4]; additive 1500 ppm, Week 1
  Bacteria (Ps. aeruginosa) count: 5.00E+04 Bact/ml
[4]; additive 1500 ppm, Week 2
  Bacteria (Ps. aeruginosa) count: 2.00E+05 Bact/ml
[4]; additive 1500 ppm, Week 3
  Bacteria (Ps. aeruginosa) count: 1.30E+05 Bact/ml
[4]; additive 1500 ppm, Week 4
  Bacteria (Ps. aeruginosa) count: 3.20E+05 Bact/ml
[6]; additive 500 ppm, Week 1
  Mold (H. resinae) count: 1.70E+05 Mold/ml
[6]; additive 500 ppm, Week 2
  Mold (H. resinae) count: 6.00E+05 Mold/ml
[6]; additive 500 ppm, Week 3
  Mold (H. resinae) count: 8.20E+05 Mold/ml
[6]; additive 500 ppm, Week 4
  Mold (H. resinae) count: 7.80E+03 Mold/ml
[6]; additive 1500 ppm, Week 1
  Mold (H. resinae) count: 6.40E+04 Mold/ml
[6]; additive 1500 ppm, Week 2
  Mold (H. resinae) count: 7.70E+05 Mold/ml
[6]; additive 1500 ppm, Week 3
  Mold (H. resinae) count: 6.00E+05 Mold/ml
[6]; additive 1500 ppm, Week 4
  Mold (H. resinae) count: 9.80E+03 Mold/ml
[7]
  effect on microbial resistance of biodiesel: no effect
